The source of these data is patent publication US8263576B2, “Non-natural sphingolipid analogs and uses thereof” (Mayo Foundation for Medical Education and Research, priority 2006, dated 2012).

In test [1] the test system is caveolar endocytosis in HSFs. Nature of the test: Uptake of endocytic markers in human skin fibroblasts (fluorescence microscopy). It is filed as cell-based. The settings on record: HSFs treated 30 min at 10° C. with lipid, pulse labeled, 5 min at 37° C. Here is the method:
HSFs were either untreated (Control) or treated for 30 min at 10° C. with D-erythro or L-threo-C8-LacCer, and then pulse labeled with fluorescent albumin or β1-integrin Fab (caveolar markers), Tfn (clathrin marker), dextran (fluid phase marker), or anti-IL2R Fab (for RhoA pathway). After 5 min at 37° C., cells were acid-stripped to remove non-internalized marker and images were acquired by fluorescence microscopy (A) and quantified (B). At least 20 cells for each condition were analyzed in multiple experiments. Bar, 10 μm.
The non-natural (L-threo; LT) isomers of C8-LacCer and BODIPY-LacCer were synthesized. The latter was synthesized by the method detailed in Liu, Y., et al. Chem. Phys. Lipids, 2006, 142, 58 (referred to as Liu). C8-LT-LacCer was prepared through a modification of the methods used in Liu, where an activated for of octanoic acid was used in place of BODIPY-C5-NHS. HSFs were then either untreated (Control) or treated for 30 min at 10° C. with D-erythro (DE) or L-threo (LT) C8-LacCer, and then pulse labeled with fluorescent albumin or anti-β1-integrin Fab (caveolar markers), Tfn (clathrin marker), dextran (fluid phase marker), or anti-IL2R Fab (for RhoA pathway). After 5 min at 37° C., cells were acid-stripped to remove non-internalized marker and images were acquired by fluorescence microscopy (A) and quantified (B). At least 20 cells for each condition were analyzed in multiple experiments. Bar, 10 μm.

The test system of test [2] is PM domains enriched in GM1 ganglioside. In words: PM microdomain clustering induced by CtxB and anti-CtxB Ab in HSFs. It is filed as cell-based, human. The settings on record: HSFs pretreated with lipid 30 min at 10° C. An excerpt:
(§1) PM domains enriched in GM1 ganglioside (A,B) or cholesterol (C) were visualized using fluorescent CtxB or BC-⊖, respectively. Clustering of these probes was induced using an anti-CtxB Ab or SV40. Note the inhibition of microdomain clustering when cells were pretreated with C8-LT-LacCer, compared to untreated control samples. (A), HSFs; (B,C) CV1 cells. Bars, 10 μm.
A potential mechanism for C8-LT-LacCer inhibition of caveolar endocytosis, namely disruption of PM microdomain formation, was explored. This mechanistic possibility was tested through incubation of cells with AF594-CtxB at 10° C. to label […] at the PM, followed by an anti-Ctx-B IgG.

The test system of test [3] is PM domains enriched in GM1 ganglioside and cholesterol. Nature of the test: SV40-induced PM domain formation in CV1 cells. The class given is cell-based, monkey. Particulars: CV1 cells pretreated with lipid, low temperature.
From the text: as §1

Another test deals with T1, β1-integrin (Homo sapiens, UniProt P05556).
T1 construct: endogenous in cells; host or cells: human skin fibroblasts (HSFs)
In words: β1-integrin activation in HSFs (HUTS-4 Ab binding). It is filed as cell-based. Particulars: for HUTS binding (β1-integrin activation), agent alone: HSFs, lipid in the absence of β1-stim Ab, or β1-stim Ab alone. Here is the method: FIG. 4a: HSFs were serum-starved for 2-3 hrs and then either untreated (panel 1, Control) or incubated with a stimulating β1-integrin IgG (panel 2; β1-stim) or with the LacCer isomers (panels 3 & 4) for 30 min at 10° C. All samples were then warmed for 30 sec at 37° C., fixed and stained with HUTS-4 Ab that recognizes β1-integrin in its active conformation. Note the absence of β1-integrin activation in cells pretreated with C8-LT-LacCer. Quantitation in FIG. 4b was by image analysis (n≧10 cells/condition; 3 independent experiments). Bars, 10 μm.
A further mechanistic possibility by which C8-LT-LacCer might inhibit caveolar internalization is by disruption transmembrane signaling events required for endocytosis. […] The first examination involved the activation of β1-integrin in HSFs following crosslinking with a stimulatory Ab (β1-stim Ab) using the HUTS-4 Ab which only binds to β1-integrins in their activated conformation (see, e.g., Luque, A. et al., J. Biol. Chem. 1996, 271, 11067).

The next test has as its system src kinase. In words: src phosphorylation (Y416) immunoblot in HSFs. It is filed as cell-based, human. Particulars: for src activation (phosphorylation at Y416), lipid alone: 30 min at 10° C., then 30 sec at 37° C.; for src phosphorylation induced by β1-stim Ab: cells pretreated with lipid, data not shown. Here is the method: HSFs were treated with C8-DE-LacCer (±PP2), C8-LT-LacCer, PDGF, or with β1 stim Ab±LacCer isomers. Samples were warmed for 30 sec at 37° C., lysed, and the cell lysates blotted for src and phosphor-Src (Y416).
Cells were incubated for 30 min at 10° C.± the LacCer stereoisomers and/or the β1-stim Ab followed by a 30 sec incubation at 37° C. Cell lysates were then immunoblotted for src and phospho-(Y416) src.

Test [4] relates to SV40 virus. Nature of the test: SV40 infection of CV1 cells (large T antigen expression). It is filed as cell-based, monkey. Particulars: CV1 cells pretreated with lipid and SV40 at low temperature, then 37° C. for 14 hrs.
The subject of test [5] is SV40 virus. Nature of the test: SV40 binding to CV1 cells (anti-SV40 VP1 MAb). The settings on record: lipid and SV40 at low temperature.
Experimental: (A, B) CV1 cells were incubated LacCer stereoisomers for 30 min at 10° C., and then coincubated for 1 hr at 10° C. with SV40 virus (MOI=15). Samples were washed, incubated for 40 hrs in complete medium, fixed, permeabilized, and stained for the Large T antigen. Values in (B) are mean ±SD (n≧50 cells/condition; three independent experiments). (C, D) CVI cells were treated with SV40 for 1 hr as in (A,B) and SV40 binding to live cells was detected using anti-SV40 VP1 MAb. Values in D are mean ±SD (n≧20 cells from two independent experiments).
Cells were treated with the C8-LT-LacCer isomer and SV40 at low temperature, washed, and then incubated with a monoclonal antibody to the SV40 major capsid protein VP1.
Test [6] concerns clathrin-dependent endocytosis. In words: Internalization route of BODIPY-LacCer stereoisomers. It is filed as cell-based. Particulars: data not shown.
Test [7] has as its system human eosinophils. In words: Eosinophil adhesion to tissue culture wells. The class given is cell-based.
The subject of test [8] is human eosinophils. Nature of the test: Eosinophil superoxide generation (cytochrome c reduction). The class given is cell-based. The settings on record: versus medium alone, 37° C., up to 4 h. Here is the method: Human eosinophils were purified from normal individuals or patients with mild allergy by Percoll density gradient centrifugation and magnetic cell sorting using MACS anti-CD16 microbeads as described by Hansel T. T., et al., J. Immunol. Methods 1991, 145, 105. Briefly, after peripheral blood was overlaid on an isotonic Percoll solution (1.084 g.ml, Sigma), the blood was centrifuges at 1000×g for 30 min at 4° C. Mononuclear cells at the interface were removed, and erythrocytes in sediment were lysed by two cycles of hypotonic water lysis. […] The purity of eosinophils counted by Randolph's stain was >98%. […]
Superoxide anion generation and degranulation by human eosinophils were used as readouts of eosinophils functions in response to proteases or synthetic PAR activating peptides. Generation of superoxide by eosinophils was measured by superoxide dismutase-inhibitable reduction of cytochrome c as previously described with slight modifications. […] Immediately after addition of stimuli, the reaction wells were measured for absorbance at 550 nm in a microplate autoreader (Thermomax, Molecular Devices, Menlo Park, Calif.), followed by repeated readings. Between absorbance measurements, the plate was incubated at 37° C. […] To quantitate eosinophils degranulation, the concentrations of eosinphil-derived neutrotoxin (EDN) in the sample supernatants were measure by specific RIA.

Test [9] concerns PM domains enriched in GM1 ganglioside. The settings on record: Singh et al., 2006, submitted; cited from earlier work.
The next test concerns rat fibroblasts. In words: Inhibition of lipid analog endocytosis by biochemical treatments in rat fibroblasts. The class given is cell-based. The text has this:
To define the molecular features of GSL analogs and their ability to selectively internalize by caveolar endocytosis, the structure of the natural D-erythro-LacCer compound was modified (Singh, R. D., et al. Mol. Biol. Cell, 2003, 14, 3254). The modifications included those to the structure of the fluorescent lipid through variations to its carbohydrate headgroup, chain length of the sphingosine base, or chain length of the fluorescent fatty acid (see FIG. 6). Tests were designed to test initial internalization and sensitivity to inhibitor treatments.
To investigate the structural determinants of GSLs that result in selective internalization via caveolae, the structure of the fluorescent GSL analogs were systematically varied (see FIG. 6) and examined to determine the effect of these variations on the mechanism of analog internalization. To examine the significance of the carbohydrate head group, the fluorescent analogs of GalCer, globoside, GM1, LacCer, MalCer, and sulfatide were used. For each of these fluorescent GSL analogs, the fluorescent fatty acid and sphingosine base were identical (n′=3, n=7; FIG. 6A). Rat fibroblasts (RFs) were incubated with each analog in the presence or absence of various inhibitors to differentiate clathrin-dependent from clathrin-independent endocytosis, and the amount of internalization (at 5 min) was quantified by image analysis.
A control experiment was carried out exactly as above, except that BODIPY-LacCer was introduced into cells from an ethanolic solution rather than from a BSA complex.
Furthermore, the importance of hydrophobicity on the mechanism of GSL endocytosis was examined. For these studies, the BODIPY-LacCer analogs that were used varied the chain length of the sphingosine base (C12 to C20), or fatty acid (C3 vs. C5 spacer) (n=1, 5, 7, or 9; n′=1 or 3; FIG. 6A).
Finally, a comparison between NBD-LacCer and NBD-D-PC (see FIG. 6B)was made to study the possible influence of the lipid backbone (ceramide vs. glycerol) on the internalization mechanism.

Test [10] concerns clathrin-dependent endocytosis. Particulars: Singh et al., J. Biol. Chem. 2006; cited from earlier work.

T1 sequence (P05556 21-798): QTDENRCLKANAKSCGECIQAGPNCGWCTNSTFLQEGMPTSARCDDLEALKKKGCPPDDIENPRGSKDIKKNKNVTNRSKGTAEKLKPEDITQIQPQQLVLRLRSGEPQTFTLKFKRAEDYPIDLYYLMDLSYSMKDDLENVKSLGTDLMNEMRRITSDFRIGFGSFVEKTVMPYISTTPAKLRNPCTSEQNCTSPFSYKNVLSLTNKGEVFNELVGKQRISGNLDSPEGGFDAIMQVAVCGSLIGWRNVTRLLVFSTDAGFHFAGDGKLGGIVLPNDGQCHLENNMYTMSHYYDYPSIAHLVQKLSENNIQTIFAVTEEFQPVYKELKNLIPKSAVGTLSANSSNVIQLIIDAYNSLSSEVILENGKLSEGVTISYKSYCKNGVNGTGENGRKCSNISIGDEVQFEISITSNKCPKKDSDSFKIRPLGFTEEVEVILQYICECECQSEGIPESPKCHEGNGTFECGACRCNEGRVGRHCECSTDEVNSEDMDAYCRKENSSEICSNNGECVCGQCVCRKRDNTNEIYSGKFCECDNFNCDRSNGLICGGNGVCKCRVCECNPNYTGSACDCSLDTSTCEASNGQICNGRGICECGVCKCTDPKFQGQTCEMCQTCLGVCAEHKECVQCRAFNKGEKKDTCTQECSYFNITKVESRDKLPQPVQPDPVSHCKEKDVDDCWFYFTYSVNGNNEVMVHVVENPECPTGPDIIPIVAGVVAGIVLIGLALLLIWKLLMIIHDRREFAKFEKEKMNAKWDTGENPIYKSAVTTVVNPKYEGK

Take `CCCCCCCCCCCCC/C=C/[C@H](O)[C@H](CO[C@@H]1O[C@H](CO)[C@@H](O[C@@H]2O[C@H](CO)[C@H](O)[C@H](O)[C@H]2O)[C@H](O)[C@H]1O)NC(=O)CCCCCCC` [C8-LT-LacCer, β-D-lactosyl-N-octanoyl-L-threo-sphingosine]: in [1], the “uptake of caveolar markers (fluorescent albumin, β1-integrin Fab)” value (from here on “uptake of caveolar markers”) is “inhibited uptake of multiple caveolar markers”. In addition, the “uptake of caveolar markers” value in test [1] (listed as LT-isomer of C8-LacCer) is “selectively inhibiting caveolar endocytosis”. Further, the “clustering of PM domains induced by labeled CtxB and crosslinking Ab” value in [2] is given as “no clustering of PM domains was observed”. In test [3], the “SV40 induction of PM domains” value is given as “prevented the SV40 induction of these PM domains”. For the same compound, on β1-integrin (HSFs pretreated with lipid prior to β1-stim Ab), the “HUTS binding (β1-integrin activation) induced by β1-stim Ab” value is recorded as “reduced HUTS binding to levels seen in untreated control cells”. Besides, the “HUTS binding (β1-integrin activation), agent alone” value at β1-integrin is listed as “no increase in HUTS binding was seen”. Moreover, in the test with src kinase, the “src activation (phosphorylation at Y416), lipid alone” value is “little or no src activation” and the “src phosphorylation induced by β1-stim Ab” value is on record as “inhibited src phosphorylation”. Also, in the test on SV40 virus [4], the “SV40 infection monitored by expression of the large T antigen” value was “dramatically reduced”. In the test on SV40 virus [5], the “inhibition of SV40 binding to CV1 cells” value was “about 80%”.
For the compound “C5-BODIPY-L-threo-lactosylceramide [BODIPY-LT-LacCer]”, the “fraction internalized by clathrin-dependent endocytosis” value in [6] is reported as 65-70%.
For `CCCCCCCCCCCCC/C=C/[C@@H](O)[C@H](CO[C@@H]1O[C@H](CO)[C@@H](O[C@@H]2O[C@H](CO)[C@H](O)[C@H](O)[C@H]2O)[C@H](O)[C@H]1O)NC(=O)CCCCCCC` [C8-DE-LacCer], the “uptake of caveolar markers” value in test [1] was “stimulated caveolar uptake”. Besides, in test [2], the “clustering of PM domains induced by labeled CtxB and crosslinking Ab” value was “No inhibition of domain formation was observed”. The “HUTS binding (β1-integrin activation), agent alone” value at β1-integrin was “activated β1-integrin”. Also, in the test with src kinase, the “src activation (phosphorylation at Y416), lipid alone” value is listed as “activated (phosphorylated at Y416)” and the “src phosphorylation induced by β1-stim Ab” value was “did not significantly affect src phosphorylation”. Besides, the adhesion of eosinophils result in the test with human eosinophils [7] is recorded as “induces adhesion of eosinophils to tissue culture wells”. Further, the “superoxide production by eosinophils” value in the test with human eosinophils [8] is listed as “A large quantity of superoxide was produced”. Also, the “SV40 infection monitored by expression of the large T antigen” value with SV40 virus [4] is reported as “no effect”. Also, the “formation of PM domains in the absence of a crosslinking Ab” value in test [9] was “induced the formation of large domains enriched in GM1 ganglioside and cholesterol”.
In the case of `CCCCCCCCCCCCC/C=C/[C@@H](O)[C@H](CO[C@@H]1O[C@H](CO)[C@@H](O[C@@H]2O[C@H](CO)[C@H](O)[C@H](O)[C@H]2O)[C@H](O)[C@H]1O)NC(=O)CCCCc1ccc2n1[B-](F)(F)[N+]1=C(C)C=C(C)C1=C2` [BODIPY-LacCer], in the test on rat fibroblasts, the “sensitivity of internalization to chlorpromazine (CPZ)” value is “not by chlorpromazine” and the “sensitivity of internalization to nystatin” value was “substantially inhibited”. Also, the “inhibition of endocytosis when delivered by ethanol injection vs. BSA complex” value in the test with rat fibroblasts (ethanolic solution) is recorded as “virtually identical results”. Further, in the test with rat fibroblasts (internalization at 5 min), the “Inhibition of lipid analog endocytosis, Clathrin-dependent internalization, Chloropromazine” value turned out to be 9.3 ± 1.7%; the “Inhibition of lipid analog endocytosis, Clathrin-dependent internalization, K+-depletion” value is given as 10.4 ± 1.3%; the “Inhibition of lipid analog endocytosis, Clathrin-independent internalization, Genistein” value is 73.9 ± 4.1%; the “Inhibition of lipid analog endocytosis, Clathrin-independent internalization, Nystatin” value came to 75.1 ± 6.8%. In addition, the internalization route result in [10] is “internalized via caveolae”.
`CC(C)(C)n1nc(-c2ccc(Cl)cc2)c2c(N)ncnc21` [PP2]: in the test on src kinase (with src inhibitor), the “src activation induced by C8-DE-LacCer” value was “blocked”.
